Measured values reported in ChEMBL document CHEMBL5126592, “Design, synthesis and activity against drug-resistant bacteria evaluation of C-20, C-23 modified 5-O-mycaminosyltylonolide derivatives” (Eur J Med Chem, 2022).
Converted amounts (≈) assume the structure as drawn. The source made the active and inactive calls. The calls are words filed in the database; no cut-off is given here.

Columns and labels:
Staphylococcus aureus [1] = experiment: Antibacterial activity against Staphylococcus aureus ATCC 25923 infected in kunming mouse assessed as reduction in viable pathogens at 32.5 mg/kg, iv measured after 1 hr; assay type: functional, organism-based
Escherichia coli [2] = experiment: Inhibition of protein synthesis in Escherichia coli ATCC 25922 assessed as reduction in protein content at […] measured upto 12 hrs by microporous enzyme labeling method relative to control; assay type: functional
Staphylococcus aureus [3] = experiment: Antibacterial activity against Staphylococcus aureus ATCC 29213 incubated for 16 to 20 hrs using 10^7 CFU/ml bacterial inoculum by broth microdilution method; assay type: functional; conditions: time 16-20 hrs
Staphylococcus aureus [4] = experiment: Antibacterial activity against Staphylococcus aureus ATCC 29213 incubated for 16 to 20 hrs using 10^6 CFU/ml bacterial inoculum by broth microdilution method; assay type: functional; conditions: time 16-20 hrs
Staphylococcus aureus [5] = experiment: Antibacterial activity against Staphylococcus aureus ATCC 29213 incubated for 16 to 20 hrs using 10^5 CFU/ml bacterial inoculum by broth microdilution method; assay type: functional; conditions: time 16-20 hrs
Staphylococcus aureus [6] = experiment: Antibacterial activity against Staphylococcus aureus ATCC 29213 incubated for 16 to 20 hrs using 10^4 CFU/ml bacterial inoculum by broth microdilution method; assay type: functional; conditions: time 16-20 hrs
Staphylococcus aureus [7] = experiment: Antibacterial activity against Staphylococcus aureus ATCC 29213 incubated for 16 to 20 hrs using 10^3 CFU/ml bacterial inoculum by broth microdilution method; assay type: functional; conditions: time 16-20 hrs
Escherichia coli [8] = experiment: Antibacterial activity against Escherichia coli ATCC 25922 incubated for 16 to 20 hrs using 10^6 CFU/ml bacterial inoculum by broth microdilution method; assay type: functional; conditions: time 16-20 hrs
Escherichia coli [9] = experiment: Antibacterial activity against Escherichia coli ATCC 25922 incubated for 16 to 20 hrs using 10^7 CFU/ml bacterial inoculum by broth microdilution method; assay type: functional; conditions: time 16-20 hrs
Escherichia coli [10] = experiment: Antibacterial activity against Escherichia coli ATCC 25922 incubated for 16 to 20 hrs using 10^4 CFU/ml bacterial inoculum by broth microdilution method; assay type: functional; conditions: time 16-20 hrs
Escherichia coli [11] = experiment: Antibacterial activity against Escherichia coli ATCC 25922 incubated for 16 to 20 hrs using 10^5 CFU/ml bacterial inoculum by broth microdilution method; assay type: functional; conditions: time 16-20 hrs
Escherichia coli [12] = experiment: Antibacterial activity against Escherichia coli ATCC 25922 incubated for 16 to 20 hrs using 10^3 CFU/ml bacterial inoculum by broth microdilution method; assay type: functional; conditions: time 16-20 hrs
Staphylococcus aureus [13] = experiment: Antibacterial activity against Staphylococcus aureus ATCC 29213 at pH 8.6 incubated for 16 to 20 hrs in presence of 50% foetal bovine serum by broth microdilution method; assay type: functional; conditions: time 16-20 hrs
Escherichia coli [14] = experiment: Antibacterial activity against Escherichia coli ATCC 25922 incubated for 16 to 20 hrs in absence of foetal bovine serum by broth microdilution method; assay type: functional; conditions: time 16-20 hrs
Staphylococcus aureus [15] = experiment: Antibacterial activity against Staphylococcus aureus incubated for 16 to 20 hrs by broth microdilution method; assay type: functional; conditions: time 16-20 hrs
Staphylococcus aureus [16] = experiment: Antibacterial activity against Staphylococcus aureus ATCC 25923 incubated for 16 to 20 hrs by broth microdilution method; assay type: functional; conditions: time 16-20 hrs
Escherichia coli [17] = experiment: Antibacterial activity against Escherichia coli ATCC 25922 incubated for 16 to 20 hrs by broth microdilution method; assay type: functional; conditions: time 16-20 hrs
Cronobacter sakazakii = experiment: Antibacterial activity against Cronobacter sakazakii ATCC 29544 incubated for 16 to 20 hrs by broth microdilution method; assay type: functional; conditions: time 16-20 hrs
Klebsiella pneumoniae = experiment: Antibacterial activity against Klebsiella pneumoniae ATCC 13883 incubated for 16 to 20 hrs by broth microdilution method; assay type: functional; conditions: time 16-20 hrs
Enterococcus faecium = experiment: Antibacterial activity against Enterococcus faecium incubated for 16 to 20 hrs by broth microdilution method; assay type: functional; conditions: time 16-20 hrs
[18] = tested on: Streptococcus dysgalactiae; experiment: Antibacterial activity against Streptococcus dysgalactiae incubated for 16 to 20 hrs by broth microdilution method; assay type: functional; conditions: time 16-20 hrs
[19] = tested on: Staphylococcus chromogenes; experiment: Antibacterial activity against Staphylococcus chromogenes incubated for 16 to 20 hrs by broth microdilution method; assay type: functional; conditions: time 16-20 hrs
Escherichia coli [20] = experiment: Antibacterial activity against Escherichia coli incubated for 16 to 20 hrs by broth microdilution method; assay type: functional; conditions: time 16-20 hrs
Pseudomonas aeruginosa = experiment: Antibacterial activity against Pseudomonas aeruginosa LTP-3 incubated for 16 to 20 hrs by broth microdilution method; assay type: functional; conditions: time 16-20 hrs
Escherichia coli [21] = experiment: Bactericidal activity against Escherichia coli ATCC 25922 incubated for 20 to 24 hrs by CLSI based analysis; assay type: functional; conditions: time 20-24 hrs
Escherichia coli [22] = experiment: Ratio of MBC to MIC for Escherichia coli ATCC 25922; assay type: functional
Staphylococcus aureus [23] = experiment: Bactericidal activity against Staphylococcus aureus ATCC 29213 incubated for 20 to 24 hrs by CLSI based analysis; assay type: functional; conditions: time 20-24 hrs
Staphylococcus aureus [24] = experiment: Antibacterial activity against Staphylococcus aureus ATCC 29213 incubated for 16 to 20 hrs by broth microdilution method; assay type: functional; conditions: time 16-20 hrs
Staphylococcus aureus [25] = experiment: Ratio of MBC to MIC for Staphylococcus aureus ATCC 29213; assay type: functional
Escherichia coli [26] = experiment: Antibacterial activity against Escherichia coli ATCC 25922 incubated for 16 to 20 hrs in presence of 5% foetal bovine serum by broth microdilution method; assay type: functional; conditions: time 16-20 hrs
Escherichia coli [27] = experiment: Antibacterial activity against Escherichia coli ATCC 25922 incubated for 16 to 20 hrs in presence of 10% foetal bovine serum by broth microdilution method; assay type: functional; conditions: time 16-20 hrs
Escherichia coli [28] = experiment: Antibacterial activity against Escherichia coli ATCC 25922 incubated for 16 to 20 hrs in presence of 25% foetal bovine serum by broth microdilution method; assay type: functional; conditions: time 16-20 hrs
Escherichia coli [29] = experiment: Antibacterial activity against Escherichia coli ATCC 25922 incubated for 16 to 20 hrs in presence of 50% foetal bovine serum by broth microdilution method; assay type: functional; conditions: time 16-20 hrs
Staphylococcus aureus [30] = experiment: Antibacterial activity against Staphylococcus aureus ATCC 29213 at pH 8.6 incubated for 16 to 20 hrs in absence of foetal bovine serum by broth microdilution method; assay type: functional; conditions: time 16-20 hrs
Staphylococcus aureus [31] = experiment: Antibacterial activity against Staphylococcus aureus ATCC 29213 at pH 8.6 incubated for 16 to 20 hrs in presence of 5% foetal bovine serum by broth microdilution method; assay type: functional; conditions: time 16-20 hrs
Staphylococcus aureus [32] = experiment: Antibacterial activity against Staphylococcus aureus ATCC 29213 at pH 8.6 incubated for 16 to 20 hrs in presence of 10% foetal bovine serum by broth microdilution method; assay type: functional; conditions: time 16-20 hrs
Staphylococcus aureus [33] = experiment: Antibacterial activity against Staphylococcus aureus ATCC 29213 at pH 8.6 incubated for 16 to 20 hrs in presence of 25% foetal bovine serum by broth microdilution method; assay type: functional; conditions: time 16-20 hrs

CC[C@H]1OC(=O)C[C@@H](O)[C@H](C)[C@@H](O[C@@H]2O[C@H](C)[C@@H](O)[C@H](N(C)C)[C@H]2O)[C@@H](CCN2CCCCC2)C[C@@H](C)C(=O)/C=C/C(C)=C/[C@@H]1CN1CCCCC1 [TILDIPIROSIN] was tested, and the Activity (Staphylococcus aureus [1]) was “Active”, the inhibition (Escherichia coli [2]) was 26.5% and the MIC (Staphylococcus aureus [3]) was 4 µg/mL (≈ 5.45 µM). For the same compound, the MIC (Staphylococcus aureus [4]) was 4 µg/mL (≈ 5.45 µM), the MIC (Staphylococcus aureus [5]) was 2 µg/mL (≈ 2.72 µM) and the MIC (Staphylococcus aureus [6]) was 1 µg/mL (≈ 1.36 µM). The MIC (Staphylococcus aureus [7]) was 0.5 µg/mL (≈ 0.681 µM), the MIC (Escherichia coli [8]) was 2 µg/mL (≈ 2.72 µM) and the MIC (Escherichia coli [9]) was 2 µg/mL (≈ 2.72 µM). For the same compound, the MIC (Escherichia coli [10]) was 1 µg/mL (≈ 1.36 µM), the MIC (Escherichia coli [11]) was 1 µg/mL (≈ 1.36 µM) and the MIC (Escherichia coli [12]) was 0.5 µg/mL (≈ 0.681 µM). It also gave an MIC (Staphylococcus aureus [13]) of 16 µg/mL, an MIC (Escherichia coli [14]) of 2 µg/mL (≈ 2.72 µM) and an MIC (Staphylococcus aureus [15]) of 32 µg/mL (≈ 43.6 µM). For the same compound, the MIC (Staphylococcus aureus [16]) was 16 µg/mL (≈ 21.8 µM), the MIC (Escherichia coli [17]) was 1 µg/mL (≈ 1.36 µM) and the MIC (Cronobacter sakazakii) was 16 µg/mL (≈ 21.8 µM). For the same compound, the MIC (Klebsiella pneumoniae) was 8 µg/mL (≈ 10.9 µM), the MIC (Enterococcus faecium) was 32 µg/mL (≈ 43.6 µM) and the MIC [18] was 32 µg/mL (≈ 43.6 µM). The MIC [19] was 16 µg/mL (≈ 21.8 µM), the MIC (Escherichia coli [20]) was 16 µg/mL (≈ 21.8 µM) and the MIC (Pseudomonas aeruginosa) was 4 µg/mL (≈ 5.45 µM). It also gave an MBC (Escherichia coli [21]) of 4 µg/mL (≈ 5.45 µM), a Ratio (Escherichia coli [22]) of 4 and an MBC (Staphylococcus aureus [23]) greater than 32 µg/mL. For the same compound, the MIC (Staphylococcus aureus [24]) was 16 µg/mL (≈ 21.8 µM), the Ratio (Staphylococcus aureus [25]) was greater than 2 and the MIC (Escherichia coli [26]) was 2 µg/mL. For the same compound, the MIC (Escherichia coli [27]) was 2 µg/mL, the MIC (Escherichia coli [28]) was 4 µg/mL and the MIC (Escherichia coli [29]) was 4 µg/mL. It also gave an MIC (Staphylococcus aureus [30]) of 4 µg/mL (≈ 5.45 µM), an MIC (Staphylococcus aureus [31]) of 4 µg/mL and an MIC (Staphylococcus aureus [32]) of 8 µg/mL. For the same compound, the MIC (Staphylococcus aureus [33]) was 16 µg/mL.
